Here are results for two molecules from patent EP2068894B1, “USE OF CIS-RHENIUM (III) DI[…] FOR POTENTIATING THE A[…] OF PLATINIUM COMPLEXES” (SOCIETE DE CO[…] RECHERCHES THERAPEUTIQUES, priority 2006, dated 2007).

Assay type in all cases: in vivo, Wistar rats
Experiment [1] concerns tumor carcinoma Guerink (T8) cells. In words: Tumor growth in rats inoculated with tumor carcinoma Guerink (T8) cells. Conditions: for Weight of isolated tumors: day 21 after tumor cells inoculation, cisplatin 8 mg/kg i.p. single on day 9, Re2 7µM/kg i.p. in liposome forms every 2 days from day 3 to day 21; for tumor growth / measured tumor volumes: in comparison to control group, volumes assessed from day 7. As for the experimental part:
(§1) Wistar rats weighting 100-120 g were inoculated by tumor carcinoma Guerink (T8) cells (Experimental Oncology, 2003, Vol. 25, pp64-68). The cells were taken in the Institute of Oncology and Experimental Pathology by R.E.Kavetskiy (Kiev). The single intraperitoneal administration of Cisplatin at the dose of 8 mg/kg was made on the 9 day after the tumor inoculation according to the method disclosed by Taylor S.K. in Medical Hypothesis 2003; 60; n°1, pp 89-93. The intraperitoneal administration of the Re2 at the dose of 7µM/kg according to the schema of antioxidant therapy [Meerson F.Z. et al. Pat. Physiol. and Exp. Therap.(Rus) 1983;N5:25-9] in liposome forms [Sktemenko et al. Ukr.Biokhim.Journal (Ukr) 2002;74,N°6:38-43] began on the 3 day after the inoculation of the tumor cells and was repeated every 2 days until day 21. Body weights were measured from day 2 after tumor inoculation, the volume of tumors were assessed from the day 7. On the day 21 animals were sacrified under chlorophormium anesthesia and the tumors were isolated and weighted. Concentrations of hemoglobin (Hb) and quantity of red blood cells (RBC) were measured according to the method described by Chevary et al. in Laboratornoe delo (Rus) 1991;N°10:9-13
(§2) Four groups of 15 animals in each were compared: control group; group with introduction of cisplatin; group with introduction of Re2; and group with introduction of cisplatin together with Re2. Wilcoxon non parametric tests were used to compare the tumor volumes according to the absence of treatment and each group of treatment or between 2 treated groups. Growth of the tumors in control group was very rapid and reached […] and occupied approximately 1/3 of the animal weight. Dynamics of tumor growth is represented on the Figure 1.

The nature of experiment [2]: Hemoglobin concentration in blood of tumor-bearing rats. The note with it: for concentration of Hb: blood, day 21 after tumor cells inoculation, cisplatin 8 mg/kg i.p. day 9, Re2 7µM/kg i.p. every 2 days from day 3. On the procedure:
as §1, §2

The next experiment concerns RBC. Description: Morphological forms of red blood cells in blood of tumor-bearing rats. Conditions: day 21 after tumor cells inoculation; for Damaged RBC / Discocytes / Echinocytes: morphological forms of RBC in blood. As for the experimental part:
as §1, §2

For the molecule cis-[Re2(AdCOO)2Cl4].2CH3CN, in experiment [1], the “Weight of isolated tumors” value amounted to 38.27 ± 16.77 g and the “tumor growth / measured tumor volumes” value is recorded as “did not prevent tumor growth but caused a little delay in progression of growth”. The “concentration of Hb” value in experiment [2] was 72.02 ± 11.12 g/L. In the experiment on RBC, the “morphological picture of RBC, result in words” value was “supported quantities of discocytes and echinocytes on a rather high level”; the “Damaged RBC” value amounted to 21.53 ± 2.34%; the Discocytes came out at 56.33 ± 4.32%; the Echinocytes is 22.14 ± 2.16%.

For `N.N.[Cl][Pt][Cl]` [cisplatin], in experiment [1], the “Weight of isolated tumors” value was 9.88 ± 9.90 g and the “tumor growth / measured tumor volumes” value is “significant decrease in measured tumor volumes”. The “concentration of Hb” value in experiment [2] is 129.49 ± 12.43 g/L. In addition, the “hemoglobin, result in words” value in experiment [2] (in comparison to control group, day 21) is given as “significant increase in hemoglobin”. In the experiment on RBC, the “Damaged RBC” value is 28.65 ± 3.98%, the Discocytes turned out to be 46.36 ± 3.18% and the Echinocytes is 24.99 ± 3.84%.
